Experimental data reported in ChEMBL document CHEMBL4000207 (Bioorg Med Chem Lett, 2017).
Values after ≈ are worked out from the molar mass of the structure shown.

How the values were obtained:
[1] = in vitro; settings: human, Caco-2
[2] = Oral bioavailability in rat; format: ADME, organism-based; settings: in vivo
[3] = Volume of distribution at steady state in iv dosed rat; format: ADME, organism-based; settings: in vivo, read-out: Vdss
[4] = Half life in iv dosed rat; format: ADME, organism-based; settings: in vivo
[5] = Lipophilicity, log D of the compound; format: physicochemical; settings: octanol/water
[6] = Intrinsic clearance in rat hepatocytes assessed per million cells; format: ADME, cell-based, Hepatocyte; settings: read-out: CLH
[7] = Clearance in iv dosed rat; format: ADME, organism-based; settings: in vivo
[8] = Solubility of the compound; format: physicochemical
[9] = in vitro; settings: human, liver microsomes

Row | SMILES | Papp A→B [1] [×10⁻⁶ cm/s] | logD [5] | hepatocyte CLint [6] [µL/min/1e6 cells] | solubility [8] [µM] | microsomal CLint [9] [µL/min/mg] | other results
1 | Cn1nc(-c2cnc(N)c(-c3ccc(C(N)=O)c(F)c3)n2)nc1C1(c2ccccc2)CC1 | 13 | 2.2 | < 1 | 32 (≈ 13.7 µg/mL) | < 3 | bioavailability [2]: 41%; Vd [3]: 2.8 L/kg; half-life [4]: 3.4 h; clearance [7]: 12 mL/min/kg
2 | Cn1nc(-c2cnc(N)c(-c3cc[nH]n3)n2)nc1C1(c2ccccc2)CC1 | – | 3 | – | – | – | –
3 | Cn1nc(-c2cnc(N)c(-n3ccc(C(N)=O)n3)n2)nc1C1(c2ccccc2)CC1 | – | 2.8 | – | – | – | –
4 | Cn1nc(-c2cnc(N)cn2)nc1C1(c2ccccc2)CC1 | – | 1.8 | – | – | – | –
5 | Cc1n[nH]c(C)c1-c1nc(-c2nc(C3(c4ccccc4)CC3)n(C)n2)cnc1N | – | 2.3 | – | – | – | –
6 | CN(C)S(=O)(=O)n1cc(-c2nc(-c3nc(C4(c5ccccc5)CC4)n(C)n3)cnc2N)cn1 | 19 | 2.8 | 157 | 11 (≈ 5.12 µg/mL) | 191 | –
7 | Cn1nc(-c2cnc(N)c(-c3ccc(N)nc3)n2)nc1C1(c2ccccc2)CC1 | – | 2 | – | – | – | –
8 | Cn1nc(-c2cnc(N)c(C#N)n2)nc1C1(c2ccccc2)CC1 | – | 2.2 | – | – | – | –

Further lines, with some results ahead:

Row | Papp A→B [1] [×10⁻⁶ cm/s] | logD [5] | hepatocyte CLint [6] [µL/min/1e6 cells] | solubility [8] [µM] | microsomal CLint [9] [µL/min/mg] | SMILES | other results
9 | 2 | 2.2 | 2 | 177 (≈ 72.8 µg/mL) | < 3 | Cn1nc(-c2cnc(N)c(-c3ccc(C(N)=O)cc3)n2)nc1C1(c2ccccc2)CC1 | –
10 | – | 2.5 | – | – | – | Cn1nc(-c2cnc(N)c(-c3ccc(F)nc3)n2)nc1C1(c2ccccc2)CC1 | –
11 | – | 2.2 | – | – | – | Cn1nc(-c2cnc(N)c(-c3cnn(C(N)=O)c3)n2)nc1C1(c2ccccc2)CC1 | –
12 | – | 2.8 | – | – | – | Cn1nc(-c2cnc(N)c(-n3cc(C(N)=O)cn3)n2)nc1C1(c2ccccc2)CC1 | –
13 | 6.6 | 2.1 | 5 | 37 (≈ 13.3 µg/mL) | < 3 | Cn1nc(-c2cnc(N)c(-c3cn[nH]c3)n2)nc1C1(c2ccccc2)CC1 | –
14 | – | 4.3 | – | – | – | Cn1nc(-c2cnc(N)c(-n3nnc4ccccc43)n2)nc1C1(c2ccccc2)CC1 | –
15 | 24 | 3.6 | 12 | 3 (≈ 1.25 µg/mL) | 20 | Cn1nc(-c2cnc(N)c(-c3nnc(C(C)(C)C)o3)n2)nc1C1(c2ccccc2)CC1 | –
